Data: PubChem BioAssay AID1919009 (Molecular Pharmacology Branch, DTP, NCI, 2023)

System: K24384-001-R-PDC complex spheroid growth
Test: Anticancer human tumor K24384-001-R-PDC patient-derived pancreatic adenocarcinoma cell line growth inhibition [AhR]
Conditions: for IC50: curve of first compound; for viability, T/C: stronger effect = lower value
Text: Multicellular complex tumor spheroid response to aryl hydrocarbon receptor antagonists in combination with a variety of drugs and investigational agents in selected tumor cell lines
The current study was undertaken to assess response to aryl hydrocarbon receptor antagonists in combination with standard-of-care drugs and investigational agents in solid tumor complex spheroid models. Complex spheroids include a stromal component modeled by human endothelial cells (HUVEC) and fibroblasts modeled by human mesenchymal stem cells (MSCs). The concentration ranges selected for each drug and investigational agent were based upon clinically achievable concentrations if the clinical Cmax of the agent was known.
Compounds. The drugs and investigational agents: BAY 2416964 (NSC825713), GNF351 (NSC835774), CH-223191 (NSC835775), CPI-455 (NSC825282), aza-TdCyd (NSC777586), decitabine (NSC127716), belinostat (NSC758774), entinostat (NSC756642), pevonedistat (NSC761192), tazemetostat (NSC777109), talazoparib (NSC765396), olaparib (NSC753686), selinexor (NSC780203), nedisertib (M3814, NSC802822), bortezomib (NSC756655), venetoclax (NSC766270), doxorubicin (NSC123127), elimusertib (BAY189344, NSC800525), ceralasertib (AZD6738, NSC777638), TAK-243 (NSC785004), alisertib (NSC759677), etoposide (NSC141540), topotecan (NSC609699), eribulin (NSC707389), gemcitabine (NSC613327), carboplatin (NSC241240), cisplatin (NSC119875), and SN-38 (NSC673596) were obtained from the National Cancer Institute (NCI) Developmental Therapeutics Program Chemical Repository (32). The FDA-approved anticancer drug set is available from the Developmental Therapeutics Program at https://dtp.cancer.gov/organization/dscb/obtaining/available plates.htm. […] The stock solutions were prepared in dimethyl sulfoxide (DMSO, Sigma-Aldrich, St. Louis, MO, cat. D2650), except for the platinum compounds which were prepared in saline (Quality Biological, Gaithersburg, MD, cat. 114-055-101), at 800-fold the tested concentration and stored at -70 degrees C prior to their use. All drugs and investigational agents were tested over a range starting from a high concentration at or near the clinical Cmax and decreasing in half-log increments. If the clinical Cmax for an agent had not been determined, the highest concentration tested was 10 microM (Table 1).
Cell Culture. All cells were maintained in an incubator at 37 degrees C and 5% CO2 with 95% humidity. The PDC lines were cultured according to standard operating procedures established by the NCI PDMR (https://pdmr.cancer.gov). Briefly, all PDCs were thawed and cultured in Matrigel-coated flasks prepared with a working solution of 1X Ham's F-12 nutrient mix, without supplementation (Invitrogen, Waltham, MA, cat. 11765054), 100 U/mL penicillin-streptomycin (Invitrogen, cat. 15140122), and 2.5% Matrigel (Corning Inc., Corning, NY, cat. 354248) for the first three passages. All PDCs were cultured in complete DMEM/F-12 media containing advanced DMEM/F-12 (Invitrogen, cat. 12634028), 4.9% defined fetal bovine serum, heat inactivated (HyClone Laboratories Inc., Logan, UT, cat. SH30070.03HI), 389 ng/mL hydrocortisone (Sigma-Aldrich, cat. H4001), 9.7 ng/mL human EGF recombinant protein (Invitrogen, cat. PHG0313), 23.4 microg/mL adenine (Sigma-Aldrich, cat. A2786), 97.3 U/mL penicillin-streptomycin (Invitrogen, cat. 15140122), 1.9 mM L-glutamine (Invitrogen, cat. 25030081), and 9.7 microM Y-27632 dihydrochloride (Tocris Bioscience, Bristol, United Kingdom, cat. 1254). The PDCs were cultured in complete DMEM/F12 media without 10 microM Y-27632 dihydrochloride for at least two passages prior to the screen. The established cell lines NCI-H1341 and […] were cultured in DMEM/F-12, HEPES (Invitrogen, cat. 11330032), 5% defined fetal bovine serum (HyClone Laboratories Inc., cat. SH30070.03), ITS premix universal culture supplement [insulin (5 microg/mL), transferrin (5 microg/mL), and selenious acid (5 ng/mL)] […]
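Wherever viability, T/C is given: percent of DMSO vehicle-treated spheroid viability set as 100%.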

## CC[C@@]1(O)C(=O)OCc2c1cc1n(c2=O)Cc2cc3c(CN(C)C)c(O)ccc3nc2-1 + CC(CO)NC(=O)c1cc(-c2ccc(Cl)cc2)nn(-c2cnn(C)c2)c1=O
Second compound 0.1 µM
  IC50: 76.3 nM
Second compound 0.316 µM
  IC50: 47.9 nM
Second compound 1 µM
  IC50: 31.7 nM
Second compound 3.16 µM
  IC50: 42 nM
Second compound 10 µM
  IC50: > 100 nM
Second compound 0.1 µM, first compound 0.000316 µM
  viability, T/C: 103%
Second compound 0.1 µM, first compound 0.001 µM
  viability, T/C: 101%
Second compound 0.1 µM, first compound 0.00316 µM
  viability, T/C: 100%
Second compound 0.1 µM, first compound 0.01 µM
  viability, T/C: 87.7%
Second compound 0.1 µM, first compound 0.0316 µM
  viability, T/C: 64%
Second compound 0.1 µM, first compound 0.1 µM
  viability, T/C: 45.7%
Second compound 0.316 µM, first compound 0.000316 µM
  viability, T/C: 93.4%
Second compound 0.316 µM, first compound 0.001 µM
  viability, T/C: 111%
Second compound 0.316 µM, first compound 0.00316 µM
  viability, T/C: 99%
Second compound 0.316 µM, first compound 0.01 µM
  viability, T/C: 84.2%
Second compound 0.316 µM, first compound 0.0316 µM
  viability, T/C: 54.7%
Second compound 0.316 µM, first compound 0.1 µM
  viability, T/C: 42.2%
Second compound 1 µM, first compound 0.000316 µM
  viability, T/C: 94.2%
Second compound 1 µM, first compound 0.001 µM
  viability, T/C: 120%
Second compound 1 µM, first compound 0.00316 µM
  viability, T/C: 104%
Second compound 1 µM, first compound 0.01 µM
  viability, T/C: 71.2%
Second compound 1 µM, first compound 0.0316 µM
  viability, T/C: 57.3%
Second compound 1 µM, first compound 0.1 µM
  viability, T/C: 39.8%
Second compound 3.16 µM, first compound 0.000316 µM
  viability, T/C: 114%
Second compound 3.16 µM, first compound 0.001 µM
  viability, T/C: 103%
Second compound 3.16 µM, first compound 0.00316 µM
  viability, T/C: 90.9%
Second compound 3.16 µM, first compound 0.01 µM
  viability, T/C: 71.8%
Second compound 3.16 µM, first compound 0.0316 µM
  viability, T/C: 53.5%
Second compound 3.16 µM, first compound 0.1 µM
  viability, T/C: 39.1%
Second compound 10 µM, first compound 0.000316 µM
  viability, T/C: 87.6%
Second compound 10 µM, first compound 0.001 µM
  viability, T/C: 81.9%
Second compound 10 µM, first compound 0.00316 µM
  viability, T/C: 100%
Second compound 10 µM, first compound 0.01 µM
  viability, T/C: 67.3%
Second compound 10 µM, first compound 0.0316 µM
  viability, T/C: 52%
Second compound 10 µM, first compound 0.1 µM
  viability, T/C: 49.8%
